Data reported in patent publication US20220411419A1, “SMALL MOLECULE MODULATORS OF MHC-I” (RetroVirox, Inc., priority 2018, published 2022).
Where two headings read alike, the source gives them in different places.

How the values were obtained:
[1] = tested on: downmodulation of MHC-I molecules expressed on the surface of HIV infected SupT1 cells; assay: cells
in vitro = settings: human, uninfected SupT1 cells
[2] = tested on: downmodulation of MHC-I molecules expressed on the surface of HIV infected SupT1 cells; settings: for EC50: read-out: EC50 for inhibition of MHC-I downmodulation utilizing the R1 parameter, SupT1 cells infected with HIV-1, compounds added 20 h after infection, 24 h incubation
[3] = tested on: surface MHC-I in uninfected SupT1 cells (GFP-negative); assay: Surface MHC-I in GFP-negative (uninfected) SupT1 cells of cultures treated with HIV-1 (FIG. 4); assay type: cell-based; settings: dose-dependent
Protocol: FIG. 4 represents the levels of expression of surface MHC-I in uninfected SupT1 cells (GFP-negative) incubated with vehicle alone (0.1% DMSO) or with compounds #40, #53, #54, #56 or #100 at different concentrations. Values are shown as the percentage of the MHC-I expression observed in cells treated with 0.1% DMSO alone. All samples were incubated with HIV-1 reporter virus (NL4.3-GFP) except those shown as ΔNef, which are shown for reference and were treated with nef-defective virus.
To determine whether the inhibitors of MHC-I downmodulation are specific for HIV infection a study to determine whether the compounds also interfere with expression of MHC-I in uninfected cells was undertaken. The effect of the same compounds was evaluated in SupT-1 cells treated with HIV-1 as shown before, but this time the levels of expression of MHC-I were obtained in GFP-negative cells (FIG. 4). […] The increase was dose-dependent and compounds elevated MHC-I levels by as much as 70% (as compared to cells treated with vehicle alone).

[4] = tested on: MHC-I surface expression in uninfected SupT1 cells; assay: Increase of MHC-I surface expression in uninfected SupT1 cells (mean-MHC-I EC50, FIG. 6A); assay type: cell-based; settings: Homo sapiens, SUP-T1, 24 h with compound, read-out: EC50 for MHC-I increased surface expression
Protocol: In some instances, the effect of small molecules in modulation of surface MHC-I was monitored in uninfected (rather than HIV-infected) Sup-T1 cells (FIG. 6A). In these experiments uninfected SupT1 cells were incubated with the compounds for 24 h and then the increase in MHC-I surface expression was monitored by staining cells with the biotinylated HLA-A2/28 antibody (One Lambda, clone BIH0037), washed and then incubated with streptavidin conjugated with APC (Streptavidin APC, EBiosciences, 17-4317) to reveal the anti-HLA-A2 bound antibody. After washing the cells again they were fixed with 0.5% paraformaldehyde and submitted to flow cytometry to determine the levels of MHC-I surface expression (APC fluorescence) in live cells (as estimated by FS/SS in these cells). […] From these assays “mean-MHC-I” EC50 values were generated to indicate the concentration of compound that augments the mean surface levels of MHC-I to 50% of the highest levels accomplished by the compound, as compared to cells treated with vehicle alone. […] Therefore, both assays: inhibition of MHC-I downmodulation in HIV infected SupT1 cells, or increase in surface MHC-I in uninfected SupT1 cells, were indistinctively used to monitor the potency of the compounds to modulate surface expression of MHC-I in SupT1 cells.
Table 7 show the activity of selected compounds utilizing the assay in which the increase of MHC-I surface expression in uninfected SupT1 cells was evaluated, as shown in FIG. 6A. The EC50 for MHC-I increased surface expression was determined using the methods described in Example 2 and illustrated in FIG. 6A.

uninfected SupT1 cells = assay: Compound-induced toxicity, XTT cell viability assay; settings: read-out: CC50 (concentration reducing cell viability by 50%), XTT method, 48 h, Tables 3 and 4
[5] = Human immunodeficiency virus 1, SUP-T1, read-out: EC50 for inhibition of MHC-I downmodulation utilizing the R1 parameter
[6] = Human immunodeficiency virus 1, SUP-T1, 24 h, read-out: EC50 for R1 (inhibition of MHC-I downmodulation)

Compound | EC50 [1, 5] [nM] | CC50 at 48 h (in vitro) [nM] | EC50 [4] [nM] | CC50 (in vitro) [nM] | further results
Cc1ccc(CN(C(=O)COc2cccc3c2OC(C)(C)C3)c2nc3c(s2)CCCC3)nc1 [Compound 40, 2-((2,2-Dimethyl-2,3-dihydrobenzofuran-7-yl)oxy)-N-((5-methylpyridin-2-yl)methyl)-N-(4,5,6,7-tetrahydrobenzo[d]thiazol-2-yl)acetamide] | 8 | > 100000 | – | – | viability of the cell culture (estimated by FS/SS) ([2]; 100 nM compound, FIG. 2G): nor the viability of the cell culture (estimated by FS/SS) was affected; R4 values lower than in cells treated with DMSO only ([2]; 100 nM compound, SupT1 cells infected with wild-type virus): approximately 10 fold; surface levels of MHC-I in uninfected cells [3]: increased the surface levels of MHC-I in uninfected cells
CC1(C)Cc2cccc(OCC(=O)Nc3nc4c(C#N)cccc4s3)c2O1 [Compound 100, N-(4-cyanobenzo[d]thiazol-2-yl)-2-((2,2-dimethyl-2,3-dihydrobenzofuran-7-yl)oxy)acetamide] | 70 | 100 | – | – | EC50 [1, 6]: 70 nM; surface levels of MHC-I in uninfected cells [3]: increased the surface levels of MHC-I in uninfected cells
C=CCN(C(=O)COc1cccc2c1OC(C)(C)C2)c1nc2c(s1)CCCC2 [Compound 56, N-Allyl-2-((2,2-dimethyl-2,3-dihydrobenzofuran-7-yl)oxy)-N-(4,5,6,7-tetrahydrobenzo[d]thiazol-2-yl)acetamide] | 1 | > 125000 | 6 | > 125000 | EC50 [1, 6]: ~1 nM; surface levels of MHC-I in uninfected cells [3]: increased the surface levels of MHC-I in uninfected cells
CC1(C)Cc2cc(C(F)(F)F)cc(OCC(=O)Nc3nc4c(s3)CCCC4)c2O1 [Compound 173, 2-((2,2-Dimethyl-5-(trifluoromethyl)-2,3-dihydrobenzofuran-7-yl)oxy)-N-(4,5,6,7-tetrahydrobenzo[d]thiazol-2-yl)acetamide] | – | – | 2500 | > 125000 | –
CC1(C)Cc2cccc(OCC(=O)N(CC(F)(F)F)c3nc4c(s3)COCC4)c2O1 [Compound 166, N-(6,7-Dihydro-4H-pyrano[4,3-d]thiazol-2-yl)-2-((2,2-dimethyl-2,3-dihydrobenzofuran-7-yl)oxy)-N-(2,2,2-trifluoroethyl)acetamide] | – | – | 200 | > 125000 | –
Cc1nc(NC(=O)COc2cccc3c2OC(C)(C)C3)ccc1C1CC1 [Compound 167, N-(5-Cyclopropyl-6-methylpyridin-2-yl)-2-((2,2-dimethyl-2,3-dihydrobenzofuran-7-yl)oxy)acetamide] | – | – | 470 | > 125000 | –
O=C(COc1cccc2[nH]ccc12)N(CC(F)(F)F)c1nc2c(s1)CCCC2 [Compound 165, 2-((1H-Indol-4-yl)oxy)-N-(4,5,6,7-tetrahydrobenzo[d]thiazol-2-yl)-N-(2,2,2-trifluoroethyl)acetamide] | – | – | 1000 | > 125000 | –
Cc1nc(NC(=O)COc2cc(C(F)(F)F)cc3c2OC(C)(C)C3)ccc1C1CC1 [Compound 174, N-(5-Cyclopropyl-6-methylpyridin-2-yl)-2-((2,2-dimethyl-5-(trifluoromethyl)-2,3-dihydrobenzofuran-7-yl)oxy)acetamide] | – | – | 2500 | > 125000 | –
Cc1nc(NC(=O)C(Cc2ccccc2)Oc2cccc3c2OC(C)(C)C3)ccc1C1CC1 (racemic) [Compound 172, (±)-N-(5-Cyclopropyl-6-methylpyridin-2-yl)-2-((2,2-dimethyl-2,3-dihydrobenzofuran-7-yl)oxy)-3-phenylpropanamide] | – | – | 8400 | > 125000 | –
Cc1cccnc1CN(C(=O)COc1cccc2c1OC(C)(C)C2)c1ccc(C2CC2)c(C)n1 [Compound 170, N-(5-Cyclopropyl-6-methylpyridin-2-yl)-2-((2,2-dimethyl-2,3-dihydrobenzofuran-7-yl)oxy)-N-((3-methylpyridin-2-yl)methyl)acetamide] | – | – | 1000 | > 125000 | –
CCN(C(=O)COc1cccc2c1OC(C)(C)C2)c1nc2c(s1)CCCC2 [Compound 54, 2-((2,2-Dimethyl-2,3-dihydrobenzofuran-7-yl)oxy)-N-ethyl-N-(4,5,6,7-tetrahydrobenzo[d]thiazol-2-yl)acetamide] | 8 | > 125000 | 9 | > 125000 | surface levels of MHC-I in uninfected cells [3]: increased the surface levels of MHC-I in uninfected cells
CC1(C)Cc2cccc(CCC(=O)Nc3nc4ccccc4s3)c2O1 [Compound 108, N-(Benzo[d]thiazol-2-yl)-3-(2,2-dimethyl-2,3-dihydrobenzofuran-7-yl) propanamide] | – | – | – | – | EC50 [2]: 1370 nM; CC50 (uninfected SupT1 cells): > 100000 nM
Cc1nc(NC(=O)COc2cccc3c2OC(C)(C)C3)ccc1C#N [Compound 168, N-(5-Cyano-6-methylpyridin-2-yl)-2-((2,2-dimethyl-2,3-dihydrobenzofuran-7-yl)oxy)acetamide] | – | – | > 25000 | > 125000 | –
Cc1cc(C)nc(NC(=O)COc2cccc3c2OC(C)(C)C3)c1 [Compound 169, 2-((2,2-Dimethyl-2,3-dihydrobenzofuran-7-yl)oxy)-N-(4,6-dimethylpyridin-2-yl)acetamide] | – | – | > 25000 | > 125000 | –
CC1(C)Cc2cccc(OC(Cc3ccccc3)C(=O)Nc3nc4c(s3)CCCC4)c2O1 (racemic) [Compound 171, (±)-2-((2,2-Dimethyl-2,3-dihydrobenzofuran-7-yl)oxy)-3-phenyl-N-(4,5,6,7-tetrahydrobenzo[d]thiazol-2-yl)propanamide] | – | – | 6200 | > 125000 | –
CN(C(=O)COc1cccc2c1OC(C)(C)C2)c1nc2c(s1)CCCC2 [Compound 53, 2-((2,2-Dimethyl-2,3-dihydrobenzofuran-7-yl)oxy)-N-methyl-N-(4,5,6,7-tetrahydrobenzo[d]thiazol-2-yl)acetamide] | 3 | > 125000 | 12 | > 125000 | surface levels of MHC-I in uninfected cells [3]: increased the surface levels of MHC-I in uninfected cells
CC1(C)Cc2cccc(OCC(=O)N(CC(F)(F)F)c3nc4c(s3)CCCC4)c2O1 [Compound 164, 2-((2,2-Dimethyl-2,3-dihydrobenzofuran-7-yl)oxy)-N-(4,5,6,7-tetrahydrobenzo[d]thiazol-2-yl)-N-(2,2,2-trifluoroethyl)acetamide] | – | – | 26 | > 125000 | –
Cc1ccccc1CCC(=O)N(C)c1nc2c(s1)CCCC2 [Compound 109, N-Methyl-N-(4,5,6,7-tetrahydrobenzo[d]thiazol-2-yl)-3-(o-tolyl) propanamide] | – | – | – | – | EC50 [2]: 2100 nM; CC50 (uninfected SupT1 cells): > 125000 nM
CC1(C)Cc2cccc(OCC(=O)N(Cc3ccccc3)c3nc4c(s3)CCCC4)c2O1 [Compound 37, N-Benzyl-2-((2,2-dimethyl-2,3-dihydrobenzofuran-7-yl)oxy)-N-(4,5,6,7-tetrahydrobenzo[d]thiazol-2-yl)acetamide] | 2 | 150 | – | – | –
CC1(C)Cc2cccc(OCC(=O)Nc3nc4c(-c5ccncc5)cccc4s3)c2O1 [Compound 101, 2-((2,2-dimethyl-2,3-dihydrobenzofuran-7-yl)oxy)-N-(4-(pyridin-4-yl)benzo[d]thiazol-2-yl)acetamide] | > 25000 | > 100000 | – | > 100000 | activity at 100 µM ([1]; Human immunodeficiency virus 1, SUP-T1, read-out: R1 @ 100 μM (R1 value for MHC-I downmodulation as % of the vehicle control)): 40%
